The values below are quoted from earlier work in patent US9700872B1, “Superpolar chromatographic stationary phases and extraction sorbents and their methods of synthesis” (THE FLORIDA INTERNATIONAL UNIVERSITY BOARD OF TRUSTEES, priority 2016, dated 2017).

For the first data set the following is noted: octanol/water; Top 100 EPA Priority Pollutants (Table 2).
For `Clc1ccccc1` [Chlorobenzene], the “Log Kow” value is 2.84. As for `Brc1ccc(Oc2ccccc2)cc1` [4-Bromophenyl phenyl ether], the “Log Kow” value is listed as 4.4. As to `c1cc2c3c(cccc3c1)CC2` [Acenaphthene], the “Log Kow” value is listed as 3.9. As for `CCCCOC(=O)c1ccccc1C(=O)OCCCC` [Di-N-butyl phthalate], the “Log Kow” value is 4.7. For `c1ccc2c(c1)cc1ccc3cccc4ccc2c1c34` [Benzo(a)pyrene], the “Log Kow” value is on record as 6. Consider `CCCCC(CC)COC(=O)c1ccccc1C(=O)OCC(CC)CCCC` (centres unmarked) [Bis(2-Ethylhexyl)phthalate], for which the “Log Kow” value was 7.4. For the compound `CCOC(=O)c1ccccc1C(=O)OCC` [Diethyl phthalate], the “Log Kow” value is recorded as 2.5.

In the case of `c1ccc2cc3ccccc3cc2c1` [Anthracene], the “Log Kow” value is 4.4. For `Clc1ccccc1Cl` [1,2-Dichlorobenzene], the “Log Kow” value is 3.4. As to `CCCl` [Chloroethane], the “Log Kow” value is 1.2. In the case of `c1ccc2c(c1)ccc1ccccc12` [Phenanthrene], the “Log Kow” value is given as 4.5. As for `c1ccc2c(c1)Cc1ccccc1-2` [Fluorene], the “Log Kow” value is 4.2. For the compound `C1=Cc2cccc3cccc1c23` [Acenaphthylene], the “Log Kow” value is on record as 3.7. For `Clc1ccc(Oc2ccccc2)cc1` [4-Chlorophenyl phenyl ether], the “Log Kow” value is listed as 4.3.

Turning to `CC1=CC(=O)CC(C)(C)C1` [Isophorone], the “Log Kow” value is on record as 1.6.

Staying with this data set, now noted: octanol/water; exemplary polyhydroxy molecules (Table 1).
On to `OC[C@H]1O[C@H](O[C@]2(CCl)O[C@H](CCl)[C@@H](O)[C@@H]2O)[C@H](O)[C@@H](O)[C@H]1Cl` [Sucralose], for which the “Log Kow” value is −1.5.

`OC[C@@H](O)[C@@H](O)[C@H](O)[C@@H](O)CO` [Sorbitol]: the “Log Kow” value is reported as −3.1.
